Experiments:
Assay type in all cases: biochemical
[1] = biological target: T1, adenosine kinase (recombinant human ADK, rhADK) (Homo sapiens, UniProt P55263); assay: in vitro rhADK phosphorylation assay, HPLC of 2-oxo-AMP
[2] = biological target: T1, adenosine kinase (recombinant human ADK, rhADK); assay: in vitro rhADK enzyme assay, HPLC of 2-oxo-AMP product (IC50 […] with Ado as substrate)
[3] = biological target: T1, adenosine kinase (recombinant human ADK, rhADK); assay: in vitro rhADK phosphorylation assay, HPLC of monophosphate product

T1 sequence (P55263 2-362): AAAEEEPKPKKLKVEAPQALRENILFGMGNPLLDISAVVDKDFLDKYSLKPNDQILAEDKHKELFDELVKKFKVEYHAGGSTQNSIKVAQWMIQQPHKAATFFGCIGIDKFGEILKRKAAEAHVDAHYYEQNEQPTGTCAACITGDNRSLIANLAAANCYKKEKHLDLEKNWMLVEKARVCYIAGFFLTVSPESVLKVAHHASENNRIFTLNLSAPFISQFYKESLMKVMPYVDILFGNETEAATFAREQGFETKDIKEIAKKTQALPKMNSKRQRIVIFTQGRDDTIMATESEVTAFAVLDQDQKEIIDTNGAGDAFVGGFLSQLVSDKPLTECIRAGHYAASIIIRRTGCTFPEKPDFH

SMILES: Nc1[nH]c(=O)nc2c1ncn2[C@@H]1O[C@H](CO)[C@@H](O)[C@H]1O [2-oxoadenosine, 1,2-Dihydro-2-oxoadenosine]
- in vitro rhADK phosphorylation assay, HPLC of 2-oxo-AMP [1]: Recombinant human ADK, ATP and nucleosides 2-oxo-Ado (a) or Ado (b) were reacted

SMILES: C[S+]([O-])c1ccc(-c2nc(-c3ccncc3)c(-c3ccc(F)cc3)[nH]2)cc1 (stereo not drawn) [SB203580]
- IC50 [2]: 8.6 µM

SMILES: Nc1nc(Cl)nc2c1ncn2[C@@H]1O[C@H](CO)[C@@H](O)[C@H]1O [2-chloroadenosine]
- in vitro rhADK phosphorylation assay, HPLC of monophosphate product [3]: Chromatograms of the reaction products of ADK with 2-Cl-Ado or AICAR showed novel peaks

From publication PMC5529524, “2-Oxoadenosine induces cytotoxicity through intracellular accumulation of 2-oxo-ATP and depletion of ATP but not via the p38 MAPK pathway” (Scientific Reports, 2017)
